Patent US20070048250A1, “Methods of treating concomitant constipation in a cancer treatment regimen including imexon” (AmpliMed Corporation, priority 2005, published 2007)

Tested on: patients
Test: clinical study of imexon to treat cancer: adverse events (daily dose 5 consecutive days per week, every other week, four-week cycle)
Format: in vivo, human
Text: As described hereinbefore, it has been found, unexpectedly, that the administration of a pharmaceutical composition comprising imexon induces constipation in a large percentage of patients. Of forty nine (49) patients taking part in a clinical study investigating the use of imexon to treat cancer, thirty one (31) patients (63.3%) were reported to have had the gastrointestinal toxicity of constipation in association with their treatment with imexon. […] All other observed gastrointestinal adverse events individually accounted for less than 5% of total gastrointestinal adverse events.
Of the forty nine (49) patients treated in the clinical study, thirty nine (39) received imexon at a dose equal to or greater than 140 mg/m^2, thirty three (33) received imexon at a dose equal to or greater than 185 mg/m^2, and thirty (30) received imexon at a dose equal to or greater than 245 mg/m^2.
Of these seventy three (73) constipation adverse events, fifty two (52) of the adverse events (71.2%) were characterized as “possibly,” “probably,” or “definitely related to the treatment” of the patient with imexon.

[1] = 20 mg/m^2, relationship Not Related
[2] = 80 mg/m^2, relationship Not Related
[3] = 105 mg/m^2, relationship Not Related
[4] = 140 mg/m^2, relationship Not Related
[5] = 140 mg/m^2, relationship Probable
[6] = 140 mg/m^2, relationship Unlikely
[7] = 185 mg/m^2, relationship Not Related
[8] = 185 mg/m^2, relationship Possible
[9] = 185 mg/m^2, relationship Probable
[10] = 245 mg/m^2, relationship Not Related
[11] = 245 mg/m^2, relationship Possible
[12] = 245 mg/m^2, relationship Probable
[13] = 325 mg/m^2, relationship Possible
[14] = 325 mg/m^2, relationship Probable
[15] = 430 mg/m^2, relationship Possible
[16] = 430 mg/m^2, relationship Probable
[17] = 430 mg/m^2, relationship Unlikely
[18] = 570 mg/m^2, relationship Definite
[19] = 570 mg/m^2, relationship Probable
[20] = 750 mg/m^2, relationship Definite
[21] = 750 mg/m^2, relationship Possible
[22] = 750 mg/m^2, relationship Probable
[23] = 875 mg/m^2, relationship Definite
[24] = 875 mg/m^2, relationship Possible
[25] = 875 mg/m^2, relationship Probable
[26] = 1000 mg/m^2, relationship Probable
[27] = all doses 20-1000 mg/m^2 (Total), relationship Definite
[28] = all doses 20-1000 mg/m^2 (Total), relationship Not Related
[29] = all doses 20-1000 mg/m^2 (Total), relationship Possible
[30] = all doses 20-1000 mg/m^2 (Total), relationship Probable
[31] = all doses 20-1000 mg/m^2 (Total), relationship Unlikely
[32] = all doses 20-1000 mg/m^2, 49 patients, all relationships (Total)
[33] = dose equal to or greater than 185 mg/m^2
[34] = dose equal to or greater than 245 mg/m^2

SMILES: N=C1NC(=O)N2CC12 (centres unmarked) [imexon, 4-imino-1,3-diazabicyclo[3.1.0]-hexan-2-one]
- Constipation Adverse Events, Total (20 mg/m^2, relationship Definite): 0
- Constipation Adverse Events, Grade 2 [1]: 1
- Constipation Adverse Events, Grade 3 [1]: 1
- Constipation Adverse Events, Total [1]: 2
- Constipation Adverse Events, Total (20 mg/m^2, relationship Possible): 0
- Constipation Adverse Events, Total (20 mg/m^2, relationship Probable): 0
- Constipation Adverse Events, Total (20 mg/m^2, relationship Unlikely): 0
- Constipation Adverse Events, Total (40 mg/m^2, relationship Definite): 0
- Constipation Adverse Events, Total (40 mg/m^2, relationship Not Related): 0
- Constipation Adverse Events, Total (40 mg/m^2, relationship Possible): 0
- Constipation Adverse Events, Total (40 mg/m^2, relationship Probable): 0
- Constipation Adverse Events, Total (40 mg/m^2, relationship Unlikely): 0
- Constipation Adverse Events, Total (80 mg/m^2, relationship Definite): 0
- Constipation Adverse Events, Grade 2 [2]: 3
- Constipation Adverse Events, Grade 3 [2]: 1
- Constipation Adverse Events, Total [2]: 4
- Constipation Adverse Events, Total (80 mg/m^2, relationship Possible): 0
- Constipation Adverse Events, Total (80 mg/m^2, relationship Probable): 0
- Constipation Adverse Events, Total (80 mg/m^2, relationship Unlikely): 0
- Constipation Adverse Events, Total (105 mg/m^2, relationship Definite): 0
- Constipation Adverse Events, Grade 2 [3]: 5
- Constipation Adverse Events, Grade 3 [3]: 3
- Constipation Adverse Events, Total [3]: 8
- Constipation Adverse Events, Total (105 mg/m^2, relationship Possible): 0
- Constipation Adverse Events, Total (105 mg/m^2, relationship Probable): 0
- Constipation Adverse Events, Total (105 mg/m^2, relationship Unlikely): 0
- Constipation Adverse Events, Total (140 mg/m^2, relationship Definite): 0
- Constipation Adverse Events, Grade 2 [4]: 1
- Constipation Adverse Events, Total [4]: 1
- Constipation Adverse Events, Total (140 mg/m^2, relationship Possible): 0
- Constipation Adverse Events, Grade 2 [5]: 1
- Constipation Adverse Events, Total [5]: 1
- Constipation Adverse Events, Grade 2 [6]: 2
- Constipation Adverse Events, Grade 3 [6]: 1
- Constipation Adverse Events, Total [6]: 3
- Constipation Adverse Events, Total (185 mg/m^2, relationship Definite): 0
- Constipation Adverse Events, Grade 3 [7]: 1
- Constipation Adverse Events, Total [7]: 1
- Constipation Adverse Events, Grade 1 [8]: 1
- Constipation Adverse Events, Total [8]: 1
- Constipation Adverse Events, Grade 2 [9]: 1
- Constipation Adverse Events, Total [9]: 1
- Constipation Adverse Events, Total (185 mg/m^2, relationship Unlikely): 0
- Constipation Adverse Events, Total (245 mg/m^2, relationship Definite): 0
- Constipation Adverse Events, Grade 1 [10]: 1
- Constipation Adverse Events, Total [10]: 1
- Constipation Adverse Events, Grade 2 [11]: 4
- Constipation Adverse Events, Grade 3 [11]: 1
- Constipation Adverse Events, Total [11]: 5
- Constipation Adverse Events, Grade 2 [12]: 2
- Constipation Adverse Events, Grade 3 [12]: 1
- Constipation Adverse Events, Total [12]: 3
- Constipation Adverse Events, Total (245 mg/m^2, relationship Unlikely): 0
- Constipation Adverse Events, Total (325 mg/m^2, relationship Definite): 0
- Constipation Adverse Events, Total (325 mg/m^2, relationship Not Related): 0
- Constipation Adverse Events, Grade 2 [13]: 2
- Constipation Adverse Events, Total [13]: 2
- Constipation Adverse Events, Grade 1 [14]: 1
- Constipation Adverse Events, Grade 2 [14]: 2
- Constipation Adverse Events, Total [14]: 3
- Constipation Adverse Events, Total (325 mg/m^2, relationship Unlikely): 0
- Constipation Adverse Events, Total (430 mg/m^2, relationship Definite): 0
- Constipation Adverse Events, Total (430 mg/m^2, relationship Not Related): 0
- Constipation Adverse Events, Grade 2 [15]: 1
- Constipation Adverse Events, Total [15]: 1
- Constipation Adverse Events, Grade 1 [16]: 2
- Constipation Adverse Events, Grade 2 [16]: 5
- Constipation Adverse Events, Grade 3 [16]: 1
- Constipation Adverse Events, Total [16]: 8
- Constipation Adverse Events, Grade 1 [17]: 1
- Constipation Adverse Events, Total [17]: 1
- Constipation Adverse Events, Grade 1 [18]: 1
- Constipation Adverse Events, Grade 2 [18]: 4
- Constipation Adverse Events, Grade 3 [18]: 2
- Constipation Adverse Events, Total [18]: 7
- Constipation Adverse Events, Total (570 mg/m^2, relationship Not Related): 0
- Constipation Adverse Events, Total (570 mg/m^2, relationship Possible): 0
- Constipation Adverse Events, Grade 1 [19]: 1
- Constipation Adverse Events, Total [19]: 1
- Constipation Adverse Events, Total (570 mg/m^2, relationship Unlikely): 0
- Constipation Adverse Events, Grade 1 [20]: 1
- Constipation Adverse Events, Grade 2 [20]: 4
- Constipation Adverse Events, Grade 3 [20]: 3
- Constipation Adverse Events, Total [20]: 8
- Constipation Adverse Events, Total (750 mg/m^2, relationship Not Related): 0
- Constipation Adverse Events, Grade 1 [21]: 2
- Constipation Adverse Events, Total [21]: 2
- Constipation Adverse Events, Grade 2 [22]: 2
- Constipation Adverse Events, Total [22]: 2
- Constipation Adverse Events, Total (750 mg/m^2, relationship Unlikely): 0
- Constipation Adverse Events, Grade 1 [23]: 2
- Constipation Adverse Events, Grade 2 [23]: 1
- Constipation Adverse Events, Grade 3 [23]: 1
- Constipation Adverse Events, Total [23]: 4
- Constipation Adverse Events, Total (875 mg/m^2, relationship Not Related): 0
- Constipation Adverse Events, Grade 2 [24]: 1
- Constipation Adverse Events, Total [24]: 1
- Constipation Adverse Events, Grade 1 [25]: 1
- Constipation Adverse Events, Total [25]: 1
- Constipation Adverse Events, Total (875 mg/m^2, relationship Unlikely): 0
- Constipation Adverse Events, Total (1000 mg/m^2, relationship Definite): 0
- Constipation Adverse Events, Total (1000 mg/m^2, relationship Not Related): 0
- Constipation Adverse Events, Total (1000 mg/m^2, relationship Possible): 0
- Constipation Adverse Events, Grade 2 [26]: 1
- Constipation Adverse Events, Total [26]: 1
- Constipation Adverse Events, Total (1000 mg/m^2, relationship Unlikely): 0
- all other observed gastrointestinal adverse events, individually, as share of total gastrointestinal adverse events (49 patients): less than 5%
- anorexia as share of total gastrointestinal adverse events (49 patients): 13.4%
- constipation adverse events as share of all gastrointestinal adverse events (49 patients): 21.8%
- diarrhea as share of total gastrointestinal adverse events (49 patients): 10.5%
- nausea as share of all gastrointestinal adverse events (49 patients): 23.0%
- vomiting as share of total gastrointestinal adverse events (49 patients): 11.9%
- Constipation Adverse Events, Grade 1 [27]: 4
- Constipation Adverse Events, Grade 2 [27]: 9
- Constipation Adverse Events, Grade 3 [27]: 6
- Constipation Adverse Events, Grade 4 [27]: 0
- Constipation Adverse Events, Grade 5 [27]: 0
- Constipation Adverse Events, Total [27]: (Total) 19
- Constipation Adverse Events, Grade 1 [28]: 1
- Constipation Adverse Events, Grade 2 [28]: 10
- Constipation Adverse Events, Grade 3 [28]: 6
- Constipation Adverse Events, Grade 4 [28]: 0
- Constipation Adverse Events, Grade 5 [28]: 0
- Constipation Adverse Events, Total [28]: (Total) 17
- Constipation Adverse Events, Grade 1 [29]: 3
- Constipation Adverse Events, Grade 2 [29]: 8
- Constipation Adverse Events, Grade 3 [29]: 1
- Constipation Adverse Events, Grade 4 [29]: 0
- Constipation Adverse Events, Grade 5 [29]: 0
- Constipation Adverse Events, Total [29]: (Total) 12
- Constipation Adverse Events, Grade 1 [30]: 5
- Constipation Adverse Events, Grade 2 [30]: 14
- Constipation Adverse Events, Grade 3 [30]: 2
- Constipation Adverse Events, Grade 4 [30]: 0
- Constipation Adverse Events, Grade 5 [30]: 0
- Constipation Adverse Events, Total [30]: (Total) 21
- Constipation Adverse Events, Grade 1 [31]: 1
- Constipation Adverse Events, Grade 2 [31]: 2
- Constipation Adverse Events, Grade 3 [31]: 1
- Constipation Adverse Events, Grade 4 [31]: 0
- Constipation Adverse Events, Grade 5 [31]: 0
- Constipation Adverse Events, Total [31]: (Total) 4
- Constipation Adverse Events, Grade 1 [32]: (Total) 14
- Constipation Adverse Events, Grade 2 [32]: (Total) 43
- Constipation Adverse Events, Grade 3 [32]: (Total) 16
- Constipation Adverse Events, Grade 4 [32]: (Total) 0
- Constipation Adverse Events, Grade 5 [32]: (Total) 0
- Constipation Adverse Events, Total [32]: 73
- Constipation Adverse Events, Total (all doses 20-1000 mg/m^2, 49 patients, all relationships (Total), listed as Imexon): (Total) 73
- constipation adverse events characterized as possibly, probably, or definitely related to the treatment [33]: 94.4%
- constipation adverse events characterized as probably, or definitely related to the treatment [33]: 72.2%
- constipation adverse events in total [33]: 54
- constipation adverse events characterized as possibly, probably, or definitely related to the treatment [34]: 96.1%
- constipation adverse events characterized as probably, or definitely related to the treatment [34]: 74.5%
- constipation adverse events in total [34]: 51
